Assay results: US10287328B2, “Treatment of diabetes, toll-like receptor 4 modulators and methods for using the same” (KeMyth Biotech Co., Ltd., priority 2016, dated 2019)
Where a SMILES comes first, the peptide text is derived from it.

Experiments:
HUVECs [1] = type: cell-based, human; conditions: for toxicity to HUVECs (FIG. 15): MTS assay, 1, 10 or 100 nM, statement for high concentration (100 nM)
Method: Cell viability was detected by a methanethiosulfonate (MTS) assay. In brief, 2×10^4 HUVECs were seeded to a 48-well plates in 100 μl endothelial cell medium (ECM, ScienCell Research Laboratory, Cat. 1001, USA) per well and incubated for 24 hrs. The media was removed and the cells were then incubated with media having 2% fetal bovine serum (FBS), in the absence or presence of various peptides, such as PLY, PLY123, PLY4, C70PLY4 or N35PLY4, at a concentration of 1, 10 or 100 nM. After incubation for 18 hours, the media was removed and 20 μl MTS reagents (20%) were added to each well in the final volume of 100 μl and placed in incubator for 1 hours. The optical density was measured at 490 nm using a plate reader.

[2] = system: neointima formation of aorta; assay: Neointima formation of aorta (HE stain) in STZ-treated HFD-fed rats; type: in vivo
Method: The ascending part of aorta were taken from mice, including control health mice and HFD induced diabetic mice, with and without treatment of C70PLY4, and kept in 10% formalin buffered for 24 h. The specimens were routinely embedded in paraffin blocks and cut in transversal sections (3 μm). The slides were stained with hematoxylin and eosin. The specimens were analyzed with light microscope.
The present study determined if C70PLY4 attenuates the status of atherosclerosis in HFD-fed rats.

HUVECs [3] = assay: Cell apoptosis, TUNEL assay in HUVECs; type: cell-based, human; conditions: positive control of TUNEL and caspase-3 assays
Method: Cell apoptosis was detected by using commercial terminal deoxynucleotidyl transferase-dUTP nick end labeling (TUNEL) and caspase-3 activity kits, i.e., Apo-BrdU in Situ DNA Fragmentation Assay Kit (BioVision) and NucView™ 488 Caspase-3 Enzyme Substrate (Biotium). In brief, after incubation with M199 media in the presence or absence of […] various PLY peptides, at 37° C., 5% CO2 for 1 hour, HUVECs were washed with PBS and fixed with fixation buffer on ice for 20 min. Cells were then soaked in 70% alcohol for 1 hr. After 2 times of wash by washing buffer, cells were incubated in DNA labeling solution for 60 min at 37° C. Cells were then treated with rinse buffer and incubated with antibody buffer for 30 min at room temperature. The cell nuclei were stained with propidium iodide for 30 min. Samples were observed by fluorescent microscopeand photographed charge-coupled device (CCD) camera.

MD2/TLR4 interaction = MD2/TLR4 interaction (Homo sapiens, UniProt O00206); assay: In vitro protein competition binding assay for MD2/TLR4 interaction; conditions: MD2 50 nM, peptide 50 μM to 3.05 nM
Method: The recombinant TLR4 protein was diluted in PBS (2 μg/mL) and immobilized on a 96-well (100 ng/well) ELISA plate by incubation at 37° C. for 2 h. The wells were washed three times with PBS, followed by blocking with the addition of 300 μL 5% BSA in PBS at ambient temperature overnight. Then, the plate was rewashed three times with PBST before performed competition binding assay. The binding of MD2 (50 nM) to TLR4 was competed by adding various amounts (2-fold serial dilution from 50 μM to 3.05 nM) of C70PLY4, N35PLY4, or M50PLY4 peptide, and the residual binding was examined using anti-MD2 and anti-mouse-IgG-HRP antibodies diluted in 1% BSA as described in herein.

recombinant TLR4 protein = recombinant TLR4 protein (Homo sapiens, UniProt O00206); assay: In vitro protein binding assay for MD2 and TLR4 (ELISA); conditions: TLR4 2 μg/mL coated, MD2 133.3 to 0.065 nM; read-out: Kd, binding affinity to the TLR4 protein
Method: The recombinant TLR4 protein was diluted in phosphate buffer saline (PBS) (2 μg/mL) and immobilized on a 96-well (100 ng/well) enzyme-linked immunosorbent assay (ELISA) plate by incubation at 37° C. for 2 h. The wells were washed three times with PBS, followed by blocking with the addition of 300 μL 5% bovine serum albumin (BSA) in PBS at ambient temperature overnight. Then, the plate was washed three times with PBST (PBS with 0.05% Tween 20 solution) before the addition of the recombinant MD2 protein solutions at various concentrations (2-fold serial dilution from 133.3 to 0.065 nM). The ligands (MD2) and TLR4 proteins were incubated at 37° C. for 2 h, and the plate was then washed three times with PBST, followed by the addition of 100 μL anti-MD2 antibodies diluted in 1% BSA (1:1000). After incubation at ambient temperature for 1 h, the plate was washed with PBST three times, followed by the addition of 100 μL anti-mouse IgG-HRP antibodies diluted in 1% BSA (1:2000). After incubation at ambient temperature for 1 h, the plate was washed with PBST three times, followed by the addition of 100 μL of the HRP substrate (i.e. 3,3′,5,5′-tetramethylbenzidine, TMB) to each well. […] The optical density (OD450) in each well was determined using an ELISA plate reader. […]

TLR4 = assay: LPS-induced PMN transendothelial migration, PMNs from wild type C3H/HeN mice; type: cell-based; conditions: for LPS induced PMN migration (FIGS. 11-12): WT mice model
Method: (§1) To obtain mice neutrophils from TLR4-deficient [TLR4(−/−)] C3H/HeJ mice and wild type C3H/HeN mice, inflammation was induced by 0.1 ml of uric acid solution into the peritoneal cavity of the mouse. The uric acid solution (noncrystalline form) was prepared by mixing with saline (10% [wt/vol]) and sonicated for 10 min. Immediately before inoculation, the milky white precipitated uric acid solution was shaken vigorously. Peritoneal exudate cells were harvested 4, 18, or 24 h after injection by two lavages of the peritoneal cavity with 5 ml of cold phosphate-buffered saline (PBS; total volume, 10 ml). Uric acid-induced peritoneal cells (UAPMN) were washed by centrifugation at 200×g for 10 min at 4° C. Followed by hypotonic lysis to eliminate red blood cells, centrifugation and an additional wash were performed. The cells were then resuspended in Krebs-Ringer phosphate buffer (KRG; pH 7.3). The numbers and populations of peritoneal exudate cells were determined by staining the nuclei with Turk reagent and by cytospin centrifugation followed by May-Grünwald-Giemsa staining, respectively. Uric acid injection into the peritoneal cavity gave a yield of 1 to 2×10^7 cells/mouse depending on time of incubation (4 hr). The levels of purity of the uric acid-induced PMN were 95% after 4 h postinjection. Viability of the isolated neutrophils exceeded 95% as determined by trypan blue exclusion. The PMN from TLR4(−/−) C3H/HeJ mice and wild type C3H/HeN mice were then used for PMN transmigration Assay.
Neutrophils from human were isolated blood that was drawn in a syringe containing preservative-free heparin (20 U/ml final), and mixed with an equal volume of PBS containing 3% dextran and then incubated for 20 min at room temperature. The leukocyte-rich plasma (upper layer) was collected and pellet cells was obtained from the plasma by centrifuge and resuspended in 0.9% NaCl. Layer 10 ml Ficoll-Hypaque solution beneath the cell suspension. After centrifuge 1500×g for 20 min, aspirate the Ficoll-Hypaque layer, leaving the neutrophil/RBC pellet. Cells were subjected to hypotonic lysis by resuspending each neutrophil/RBC pellet in cold 0.2% NaCl for 30 sec. At the end of this period, restore isotonicity by adding ice-cold 1.6% NaCl. After centrifuge, resuspend cells in ice-cold PBS/glucose buffer. Neutrophils from mice were isolated from the peritoneum as previously described. See, e.g., Rabes et al., Curr Top Microbiol Immunol 397:215-227 (2016). The cell concentration was adjusted to […]. The viability of the isolated neutrophils exceeded 95%, as determined by Trypan blue exclusion.
Transendothelial migration was performed by using a Transwell system. Transwell filters were pre-seeded with HUVEC monolayers for 24 hrs and transferred to clean 24-well plates. HUVECs were washed twice with DPBS, 500 μl of ECM was added to the Transwell filter compartment and 10^6 neutrophils were then added in upper chamber. Transendothelial migration was stimulated by addition of LPS to the lower chamber to a final concentration of 1 μg/ml. Cells were incubated with the endothelial cells for 1 h at 37° C. At the conclusion of the incubation, migrated cells were collected from the lower chamber and counted in a hemacytometer in triplicate. Percent PMN transmigration was calculated by dividing the number of PMN recovered from the lower chamber by the number of PMN initially added.
PMN transendothelial migration plays an important role in early stage of atherogenesis. […].

[4] = system: PMNs isolated from TLR4(−/−) mice C3H/HeJ; assay: LPS-induced PMN transendothelial migration, PMNs from TLR4(-/-) C3H/HeJ mice; type: cell-based; conditions: LPS 1 μg/ml, HUVEC monolayer Transwell
Method: as §1, with “Followed by hypotonic lysis to eliminate red blood cells, centrifugation and an additional wash were performed. The cells were then resuspended in Krebs-Ringer phosphate buffer (KRG; pH 7.3).” left out, “Uric acid injection into the peritoneal cavity gave a yield of 1 to 2×10^7 cells/mouse depending on time of incubation (4 hr). The levels of purity of the uric acid-induced PMN were 95% after 4 h postinjection.” left out, “The PMN from TLR4(−/−) C3H/HeJ mice and wild type C3H/HeN mice were then used for PMN transmigration Assay.” left out
Neutrophils from human were isolated blood that was drawn in a syringe containing preservative-free heparin (20 U/ml final), and mixed with an equal volume of PBS containing 3% dextran and then incubated for 20 min at room temperature. […] The viability of the isolated neutrophils exceeded 95%, as determined by Trypan blue exclusion. […]

Chain of MD2/TLR4 interaction (O00206 24-631): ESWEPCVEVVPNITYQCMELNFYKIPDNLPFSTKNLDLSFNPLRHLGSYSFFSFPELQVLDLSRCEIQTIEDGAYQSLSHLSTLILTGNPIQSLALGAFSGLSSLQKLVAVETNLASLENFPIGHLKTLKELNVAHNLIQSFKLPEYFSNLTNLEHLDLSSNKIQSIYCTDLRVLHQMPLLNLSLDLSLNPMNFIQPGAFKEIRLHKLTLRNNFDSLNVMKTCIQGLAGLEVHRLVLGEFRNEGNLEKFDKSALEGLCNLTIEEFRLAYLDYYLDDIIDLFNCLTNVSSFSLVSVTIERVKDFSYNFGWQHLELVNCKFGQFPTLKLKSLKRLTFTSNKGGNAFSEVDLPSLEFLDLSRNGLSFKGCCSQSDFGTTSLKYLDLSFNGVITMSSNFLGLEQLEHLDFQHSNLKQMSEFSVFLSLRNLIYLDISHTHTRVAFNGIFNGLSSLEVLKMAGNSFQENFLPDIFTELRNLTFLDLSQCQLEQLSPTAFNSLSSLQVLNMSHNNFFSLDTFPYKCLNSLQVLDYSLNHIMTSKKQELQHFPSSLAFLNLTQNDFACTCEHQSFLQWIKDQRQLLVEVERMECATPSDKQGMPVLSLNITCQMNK
Chain of recombinant TLR4 protein (O00206 24-839): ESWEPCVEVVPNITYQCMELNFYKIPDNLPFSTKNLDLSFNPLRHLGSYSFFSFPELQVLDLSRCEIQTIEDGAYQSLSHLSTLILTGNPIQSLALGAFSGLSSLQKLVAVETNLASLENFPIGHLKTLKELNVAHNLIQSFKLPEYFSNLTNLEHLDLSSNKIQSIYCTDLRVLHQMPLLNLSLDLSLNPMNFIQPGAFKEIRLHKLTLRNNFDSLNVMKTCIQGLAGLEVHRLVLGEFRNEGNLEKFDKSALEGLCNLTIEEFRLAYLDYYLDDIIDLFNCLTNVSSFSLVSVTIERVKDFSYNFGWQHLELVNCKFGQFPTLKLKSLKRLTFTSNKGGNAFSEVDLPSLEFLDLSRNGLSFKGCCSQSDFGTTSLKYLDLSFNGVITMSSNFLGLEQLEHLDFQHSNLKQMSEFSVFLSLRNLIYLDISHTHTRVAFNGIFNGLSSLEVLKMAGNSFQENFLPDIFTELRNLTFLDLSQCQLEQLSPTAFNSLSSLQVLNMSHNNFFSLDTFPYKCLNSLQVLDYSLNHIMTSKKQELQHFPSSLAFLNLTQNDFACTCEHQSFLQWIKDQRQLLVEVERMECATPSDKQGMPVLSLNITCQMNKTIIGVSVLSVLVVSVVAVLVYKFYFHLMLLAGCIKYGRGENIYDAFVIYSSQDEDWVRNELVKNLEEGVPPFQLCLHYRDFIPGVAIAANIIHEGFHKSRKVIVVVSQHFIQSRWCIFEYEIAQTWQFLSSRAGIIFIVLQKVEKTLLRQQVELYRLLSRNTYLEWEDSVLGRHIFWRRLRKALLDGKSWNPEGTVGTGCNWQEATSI

CC[C@H](C)[C@H](NC(=O)[C@H](CCCCN)NC(=O)[C@@H](NC(=O)[C@H](CO)NC(=O)[C@H](CC(C)C)NC(=O)[C@H](CC(N)=O)NC(=O)[C@H](CCCNC(=N)N)NC(=O)[C@@H](NC(=O)[C@H](CC(N)=O)NC(=O)CNC(=O)[C@H](CCCCN)NC(=O)[C@H](CC(C)C)NC(=O)[C@@H]1CCCN1C(=O)[C@@H](NC(=O)[C@H](CO)NC(=O)[C@@H](NC(=O)[C@@H](NC(=O)[C@H](Cc1ccccc1)NC(=O)[C@H](Cc1c[nH]cn1)NC(=O)[C@H](C)NC(=O)[C@@H](NC(=O)[C@H](CC(C)C)NC(=O)[C@H](CC(=O)O)NC(=O)[C@@H](N)CCC(N)=O)[C@@H](C)O)[C@@H](C)O)[C@@H](C)O)[C@@H](C)CC)C(C)C)C(C)C)C(=O)N[C@@H](CCCNC(=N)N)C(=O)N[C@@H](CCC(=O)O)C(=O)N[C@@H](CS)C(=O)N[C@H](C(=O)NCC(=O)N[C@@H](CC(C)C)C(=O)N[C@@H](C)C(=O)N[C@@H](Cc1c[nH]c2ccccc12)C(=O)N[C@@H](CCC(=O)O)C(=O)N[C@@H](Cc1c[nH]c2ccccc12)C(=O)N[C@@H](Cc1c[nH]c2ccccc12)C(N)=O)[C@@H](C)O [N35PLY4] (H-QDLTAHFTTSIPLKGNVRNLSVKIRECTGLAWEWW-NH2)
toxicity to HUVECs (FIG. 15) (HUVECs [1]): no toxic effects

CC(=O)N[C@@H](CS)C(=O)O [NAC, N-acetylcycteine, reference compound]
neointima formation of aorta induced by STZ [2]: partially improve the STZ effect on the neointima formation

CC[C@@]1(O)C(=O)OCc2c1cc1n(c2=O)Cc2cc3ccccc3nc2-1 [camptothecin, reference compound]
apoptotic cells (HUVECs [3]): about 60%

M50PLY4: peptide of 6th to 55th amino acid residues of C70PLY4 (407-456), lacking the N-terminal motif QDLTA, SEQ ID NO: 8 (HFTTSIPLKGNVRNLSVKIRECTGLAWEWWRTVYEKTDLPLVRKRTISIW) [reference compound]
blocking capability for MD2 and TLR4 protein interaction (in words) (MD2/TLR4 interaction): no competitive capability

MD2: recombinant MD2 protein, an extracellular protein associated with the extracellular domain of TLR4 protein
Kd (recombinant TLR4 protein): 18.4 ± 3.9 nM

N35PLY4m24L25K: N35PLY4 with double mutations, position 24 I to L and position 25 R to K, SEQ ID NO: 7 (QDLTAHFTTSIPLKGNVRNLSVKLKECTGLAWEWW)
LPS induced PMN migration (FIGS. 11-12) (TLR4): inhibitory effects

N35PLY4m25K (QDLTAHFTTSIPLKGNVRNLSVKIKECTGLAWEWW)
LPS induced PMN migration (FIGS. 11-12) (TLR4): inhibitory effects

full-length PLY: full length pneumococcal pneumolysin, 1-471 amino acid residues, SEQ ID NO: 1, prepared by recombinant technology [reference compound]
cells survived (HUVECs [1]; HUVECs, 100 nM, 18 hours, MTS): 30%
toxicity to HUVECs (FIG. 15) (HUVECs [1]): toxic to cells
PMNs migration, TLR4(−/−) mice model (FIG. 10) [4]: did not affect the PMNs migration
PMNs migration, WT mice model (FIG. 10) (TLR4; PMNs from C3H/HeN mice, LPS 1 μg/ml, HUVEC monolayer Transwell): did not affect the PMNs migration
LPS induced PMN migration (FIGS. 11-12) (TLR4): enhances PMN migration induced by LPS
